Test results as given in publication PMC6757289, “Design and Characterization of SGK3-PROTAC1, an Isoform Specific SGK3 Kinase PROTAC Degrader” (ACS Chemical Biology, 2019).
Read-outs that look alike come from different tables or passages of the source.

Legend:
Assay in all cases: kinase profiling panel
Type in all cases: biochemical
Conditions in all cases: read-out: % Activity Remaining
JNK2 = JNK2 (Homo sapiens, UniProt P45984)
Source text: (§1) Protein kinase profiling against a Dundee panel of 140 protein kinases was undertaken at the International Centre for Protein Kinase Profiling. The result for each kinase was presented as a mean kinase activity of the reaction taken in triplicate relative to a control sample treated with DMSO. Assay conditions and abbreviations are available at http://www.kinase-screen.mrc.ac.uk.

GCK = target: T1, GCK (Homo sapiens, UniProt Q12851)
T1 sequence (Q12851 1-820): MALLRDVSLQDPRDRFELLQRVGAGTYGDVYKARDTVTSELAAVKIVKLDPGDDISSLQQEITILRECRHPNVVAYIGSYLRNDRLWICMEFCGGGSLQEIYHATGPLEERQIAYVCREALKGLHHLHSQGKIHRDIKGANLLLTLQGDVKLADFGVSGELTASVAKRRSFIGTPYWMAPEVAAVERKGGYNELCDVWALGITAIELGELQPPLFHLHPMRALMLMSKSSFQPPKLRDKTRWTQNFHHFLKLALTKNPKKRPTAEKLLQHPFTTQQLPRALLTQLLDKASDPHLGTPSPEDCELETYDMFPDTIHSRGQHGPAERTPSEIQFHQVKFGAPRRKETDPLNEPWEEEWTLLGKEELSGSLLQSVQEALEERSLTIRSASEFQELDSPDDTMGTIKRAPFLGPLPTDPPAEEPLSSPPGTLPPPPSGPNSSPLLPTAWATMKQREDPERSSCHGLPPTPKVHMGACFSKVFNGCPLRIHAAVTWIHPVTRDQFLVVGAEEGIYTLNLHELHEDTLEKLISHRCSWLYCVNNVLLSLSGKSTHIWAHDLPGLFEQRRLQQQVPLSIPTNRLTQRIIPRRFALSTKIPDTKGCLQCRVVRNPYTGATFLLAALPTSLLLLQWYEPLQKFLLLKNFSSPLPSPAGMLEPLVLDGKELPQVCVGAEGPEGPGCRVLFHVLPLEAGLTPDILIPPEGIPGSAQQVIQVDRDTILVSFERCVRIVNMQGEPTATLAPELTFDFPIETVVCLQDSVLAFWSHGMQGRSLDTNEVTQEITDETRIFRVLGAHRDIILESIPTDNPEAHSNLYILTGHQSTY
Source text: as §1

EIF2AK3 = target: T2, EIF2AK3 (Homo sapiens, UniProt Q9NZJ5)
T2 sequence (Q9NZJ5 30-1116): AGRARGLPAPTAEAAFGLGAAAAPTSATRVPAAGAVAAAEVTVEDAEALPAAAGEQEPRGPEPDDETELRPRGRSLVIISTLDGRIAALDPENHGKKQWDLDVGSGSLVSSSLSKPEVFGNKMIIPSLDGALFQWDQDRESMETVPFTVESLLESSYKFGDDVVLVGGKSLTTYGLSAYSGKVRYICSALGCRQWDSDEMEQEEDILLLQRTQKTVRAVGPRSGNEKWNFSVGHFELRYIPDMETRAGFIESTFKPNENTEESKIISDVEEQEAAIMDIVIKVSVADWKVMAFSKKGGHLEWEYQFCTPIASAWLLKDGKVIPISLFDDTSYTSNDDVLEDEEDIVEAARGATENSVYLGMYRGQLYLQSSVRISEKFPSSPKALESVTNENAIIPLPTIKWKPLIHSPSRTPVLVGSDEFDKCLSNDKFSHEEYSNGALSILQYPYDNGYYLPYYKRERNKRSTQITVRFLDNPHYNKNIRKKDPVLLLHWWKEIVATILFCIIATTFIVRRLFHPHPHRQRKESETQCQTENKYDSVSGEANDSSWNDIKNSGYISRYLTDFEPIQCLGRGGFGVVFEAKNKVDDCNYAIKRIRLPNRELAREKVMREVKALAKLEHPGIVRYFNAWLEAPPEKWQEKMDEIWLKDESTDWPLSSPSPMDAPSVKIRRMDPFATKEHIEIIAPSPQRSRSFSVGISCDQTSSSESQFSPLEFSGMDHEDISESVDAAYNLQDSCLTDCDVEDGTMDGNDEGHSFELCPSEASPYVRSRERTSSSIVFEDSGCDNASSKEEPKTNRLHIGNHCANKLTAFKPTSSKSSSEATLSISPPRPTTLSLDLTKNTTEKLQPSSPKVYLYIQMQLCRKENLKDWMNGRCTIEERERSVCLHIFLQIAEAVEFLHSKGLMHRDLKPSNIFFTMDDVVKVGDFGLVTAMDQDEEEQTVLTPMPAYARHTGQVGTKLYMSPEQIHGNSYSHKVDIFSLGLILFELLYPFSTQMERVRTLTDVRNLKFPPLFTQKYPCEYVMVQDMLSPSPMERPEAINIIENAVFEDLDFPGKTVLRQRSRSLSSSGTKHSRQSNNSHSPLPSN
Source text: as §1

PKD1 = target: T3, PKD1 (Homo sapiens, UniProt Q15139)
T3 sequence (Q15139 1-912): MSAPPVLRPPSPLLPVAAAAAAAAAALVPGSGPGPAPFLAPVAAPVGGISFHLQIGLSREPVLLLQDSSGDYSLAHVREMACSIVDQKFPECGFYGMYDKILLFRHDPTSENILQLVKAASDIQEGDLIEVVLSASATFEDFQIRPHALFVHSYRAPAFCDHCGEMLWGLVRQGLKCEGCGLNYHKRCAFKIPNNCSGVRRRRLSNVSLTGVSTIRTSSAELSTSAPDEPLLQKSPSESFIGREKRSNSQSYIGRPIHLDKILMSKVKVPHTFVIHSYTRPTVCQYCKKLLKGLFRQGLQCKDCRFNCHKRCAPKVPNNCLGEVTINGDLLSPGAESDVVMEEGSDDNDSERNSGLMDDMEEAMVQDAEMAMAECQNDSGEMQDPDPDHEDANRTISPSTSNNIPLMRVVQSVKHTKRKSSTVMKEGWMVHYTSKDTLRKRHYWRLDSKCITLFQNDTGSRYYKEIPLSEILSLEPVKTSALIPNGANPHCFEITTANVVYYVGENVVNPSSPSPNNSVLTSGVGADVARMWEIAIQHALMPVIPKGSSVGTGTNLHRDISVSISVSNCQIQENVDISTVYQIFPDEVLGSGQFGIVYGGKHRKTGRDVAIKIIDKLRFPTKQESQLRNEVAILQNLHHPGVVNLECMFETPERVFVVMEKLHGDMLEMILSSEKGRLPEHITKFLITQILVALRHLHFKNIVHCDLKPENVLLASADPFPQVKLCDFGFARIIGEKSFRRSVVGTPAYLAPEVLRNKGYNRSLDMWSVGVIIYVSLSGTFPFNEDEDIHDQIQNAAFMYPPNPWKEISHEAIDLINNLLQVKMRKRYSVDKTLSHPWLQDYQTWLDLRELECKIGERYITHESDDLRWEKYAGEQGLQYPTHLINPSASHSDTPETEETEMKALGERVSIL
Source text: as §1

PAK5 = PAK5 (Homo sapiens, UniProt Q9P286)
Source text: as §1

PAK5, sequence (Q9P286 whole entry): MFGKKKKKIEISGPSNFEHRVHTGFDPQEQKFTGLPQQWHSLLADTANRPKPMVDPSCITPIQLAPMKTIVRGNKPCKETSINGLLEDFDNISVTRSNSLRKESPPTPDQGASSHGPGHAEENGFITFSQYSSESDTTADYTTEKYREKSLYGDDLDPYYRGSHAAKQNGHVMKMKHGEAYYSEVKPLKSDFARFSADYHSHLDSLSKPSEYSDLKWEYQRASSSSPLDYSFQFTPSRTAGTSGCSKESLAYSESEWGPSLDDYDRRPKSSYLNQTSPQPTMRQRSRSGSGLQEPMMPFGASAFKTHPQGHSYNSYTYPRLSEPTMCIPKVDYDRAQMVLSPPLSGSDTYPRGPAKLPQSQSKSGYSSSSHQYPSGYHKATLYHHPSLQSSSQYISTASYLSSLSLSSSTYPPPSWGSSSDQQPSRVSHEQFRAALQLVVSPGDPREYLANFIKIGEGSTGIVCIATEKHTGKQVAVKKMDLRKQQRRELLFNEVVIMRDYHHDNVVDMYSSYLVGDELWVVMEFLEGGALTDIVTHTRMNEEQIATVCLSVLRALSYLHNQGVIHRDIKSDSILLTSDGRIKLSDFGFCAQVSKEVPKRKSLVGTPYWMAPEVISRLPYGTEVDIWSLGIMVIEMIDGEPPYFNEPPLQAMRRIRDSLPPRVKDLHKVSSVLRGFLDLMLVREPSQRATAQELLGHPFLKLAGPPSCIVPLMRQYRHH
JNK2, sequence (P45984 whole entry): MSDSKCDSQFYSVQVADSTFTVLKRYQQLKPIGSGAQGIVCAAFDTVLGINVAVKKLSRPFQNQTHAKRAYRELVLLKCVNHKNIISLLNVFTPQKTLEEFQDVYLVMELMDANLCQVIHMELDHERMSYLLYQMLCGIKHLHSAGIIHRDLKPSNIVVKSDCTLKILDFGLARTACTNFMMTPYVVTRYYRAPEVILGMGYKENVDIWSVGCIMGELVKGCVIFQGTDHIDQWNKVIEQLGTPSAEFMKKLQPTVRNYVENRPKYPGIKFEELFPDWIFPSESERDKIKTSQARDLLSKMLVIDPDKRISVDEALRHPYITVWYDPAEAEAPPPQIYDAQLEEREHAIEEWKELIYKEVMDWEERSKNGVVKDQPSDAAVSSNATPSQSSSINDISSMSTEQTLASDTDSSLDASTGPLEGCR

In the case of `COc1ccc(Cl)c(S(=O)(=O)Nc2ccc(-c3nc(OC[C@H]4CNCCO4)c4c(C)n[nH]c4n3)cc2)c1` [290-R, reference compound], the remaining activity at 1 µM (JNK2) is reported as 105%, the remaining activity at 1 µM (GCK) is reported as 90% and the remaining activity at 1 µM (EIF2AK3) is reported as 66%. For the same compound, the remaining activity at 1 µM (PKD1) was 15% and the remaining activity at 1 µM (PAK5) was 110%.
`Cc1ccc(F)c(S(=O)(=O)Nc2ccc(-c3nc(OC[C@H]4CNCCO4)c4cn[nH]c4n3)cc2)c1` [308-R, reference compound] gave a remaining activity at 1 µM (JNK2) of 113%, a remaining activity at 1 µM (GCK) of 80% and a remaining activity at 1 µM (EIF2AK3) of 63%. It also gave a remaining activity at 1 µM (PKD1) of 37% and a remaining activity at 1 µM (PAK5) of 83%.
`Cc1ccc(F)c(S(=O)(=O)Nc2ccc(-c3nc(OC[C@H]4CN(CCCCCCOCCOCCOCC(=O)N[C@H](C(=O)N5C[C@H](O)C[C@H]5C(=O)NCc5ccc(-c6scnc6C)cc5)C(C)(C)C)CCO4)c4cn[nH]c4n3)cc2)c1` [SGK3-PROTAC1] was tested, and the remaining activity at 1 µM (JNK2; 1 µM) was 117%, the remaining activity at 1 µM (GCK; 1 µM) was 99% and the remaining activity at 1 µM (EIF2AK3; 1 µM) was 106%. It also gave a remaining activity at 1 µM (PKD1; 1 µM) of 94% and a remaining activity at 1 µM (PAK5; 1 µM) of 88%.
For `Cc1ccc(F)c(S(=O)(=O)Nc2ccc(-c3nc(OC[C@H]4CN(CCCCCCOCCOCCOCC(=O)N[C@H](C(=O)N5C[C@@H](O)C[C@H]5C(=O)NCc5ccc(-c6scnc6C)cc5)C(C)(C)C)CCO4)c4cn[nH]c4n3)cc2)c1` [cisSGK3-PROTAC1], the remaining activity at 1 µM (JNK2; 1 µM) was 109%, the remaining activity at 1 µM (GCK; 1 µM) was 96% and the remaining activity at 1 µM (EIF2AK3; 1 µM) was 111%. The remaining activity at 1 µM (PKD1; 1 µM) was 92% and the remaining activity at 1 µM (PAK5; 1 µM) was 105%.
